Experimental data: PMC8047676 (ACS Omega, 2021)
In brackets after ≈: the same amount, converted by molar mass. Several values for one entry are separate records, joined by “and”; a condition that tells them apart may be missing. Equal values may be shown once.

Tests used:
CHIKV [1] = conditions: cited from earlier work
CHIKV [2] = conditions: Vero A cells, cited from earlier work
CHIKV nsP2 protein = test: Flow cytometry of nsP2 protein expression in infected BHK-21 cells; format: cell-based, Chikungunya virus (CHIKV); conditions: for numbers of cells expressing nsP2 protein reduced: flow cytometry, 24 h post treatment
CHIKV E2 protein = test: Flow cytometry of E2 protein expression in infected BHK-21 cells; format: cell-based, Chikungunya virus (CHIKV); conditions: for percentages of infected cells showing E2 expression reduced: flow cytometry, 24 h post treatment
[3] = system: CHIKV nonstructural protein nsP2; test: Western blot of CHIKV nsP2 protein in infected BHK-21 cells; format: cell-based, Chikungunya virus (CHIKV); conditions: 24 h
BHK-21 cells = test: Microscopic observation of cell morphology; format: cell-based, hamster; conditions: 5, 10 and 20 μM, 24 h, microscope
[4] = system: CHIKV envelope E2 glycoprotein; test: Western blot of CHIKV E2 protein in infected BHK-21 cells; format: cell-based, Chikungunya virus (CHIKV); conditions: 24 h
[5] = system: CHIKV prototype strain S27; test: Plaque assay of CHIKV-infected BHK-21 cells; format: cell-based, Chikungunya virus (CHIKV); conditions: for plaque numbers reduced: BHK-21 cells, CHIKV S27 MOI 0.01, 24 hpi
CHIKV E2 RNA = test: RT-PCR of CHIKV E2 RNA in infected BHK-21 cells; format: cell-based, Chikungunya virus (CHIKV); conditions: 24 h post treatment, normalized to GAPDH
CHIKV nsP2 RNA = test: RT-PCR of CHIKV nsP2 RNA in infected BHK-21 cells; format: cell-based, Chikungunya virus (CHIKV); conditions: 24 h post treatment, normalized to GAPDH
[6] = MTT cellular cytotoxicity assay; format: cell-based; conditions: hamster, BHK-21 cells
[7] = ribavirin treatment, concentration not given

Structure (SMILES): CCN(CC)CCCC(C)Nc1ccnc2cc(Cl)ccc12 (centres unmarked) [Chloroquine]
- IC50, antiviral effects in vitro (CHIKV [1]): 1.1 µg/mL (≈ 3.44 µM)
- IC50 (CHIKV [2]; read-out: IC50, inhibition of CHIKV replication): 7 µM
- IC90 (CHIKV [2]; read-out: IC90, inhibition of CHIKV replication): 15 µM

Structure (SMILES): Cn1c(=O)c(C(=O)CCN2CCOCC2)c(O)c2ccccc21 [QVIR, 4-hydroxy-1-methyl-3-(3-morpholinopropanoyl)quinoline-2(1H)-one]
- numbers of cells expressing nsP2 protein reduced (CHIKV nsP2 protein; 5 μM): 43.25%
- numbers of cells expressing nsP2 protein reduced (CHIKV nsP2 protein; 10 μM): 54.04%
- numbers of cells expressing nsP2 protein reduced (CHIKV nsP2 protein; 20 μM): 71.48%
- percentages of infected cells showing E2 expression reduced (CHIKV E2 protein; 5 μM): 44.60%
- percentages of infected cells showing E2 expression reduced (CHIKV E2 protein; 10 μM): 51.22%
- percentages of infected cells showing E2 expression reduced (CHIKV E2 protein; 20 μM): 67.7%
- protein levels of nsP2 reduced ([3]; 10 μM): 63.4%
- protein levels of nsP2 reduced ([3]; 20 μM): 69.9%
- morphological changes of BHK-21 cells (BHK-21 cells): inertness
- E2 protein levels suppressed ([4]; 5 μM): 22.8%
- E2 protein levels suppressed ([4]; 10 μM): 45.8%
- E2 protein levels suppressed ([4]; 20 μM): 53.9%
- plaque numbers reduced ([5]; 5 μM): 82.62%
- plaque numbers reduced ([5]; 10 μM): 97.86%
- plaque numbers reduced ([5]; 20 μM): 99.61%
- EC50 ([5]; Chikungunya virus, BHK-21, 24 h, read-out: EC50 (50% effective concentration) against CHIKV infection): 2.2 ± 0.49 µM
- RNA levels of E2 diminished (CHIKV E2 RNA; 5 μM): 39%
- RNA levels of E2 diminished (CHIKV E2 RNA; 10 μM): 55.6%
- RNA levels of E2 diminished (CHIKV E2 RNA; 20 μM): 74%
- RNA levels of nsP2 decreased (CHIKV nsP2 RNA; 5 μM): 52.1%
- RNA levels of nsP2 decreased (CHIKV nsP2 RNA; 10 μM): 67.5%
- RNA levels of nsP2 decreased (CHIKV nsP2 RNA; 20 μM): 84% and 84.1%
- CC50 at 24 h [6]: > 200 µM

Structure (SMILES): C=C[C@H]1C[N@@]2CC[C@H]1C[C@H]2[C@H](O)c1ccnc2ccc(OC)cc12 [quinine]
- IC50, inhibits CHIKV in vitro (CHIKV [1]): 0.1 µg/mL (≈ 0.308 µM)

Structure (SMILES): NC(=O)c1ncn([C@@H]2O[C@H](CO)[C@@H](O)[C@H]2O)n1 [Ribavirin, reference compound]
- viral nsP2 protein level by flow cytometry (CHIKV nsP2 protein; [7]): decreased
- viral E2 protein level by flow cytometry (CHIKV E2 protein; [7]): decreased
- plaque numbers reduced ([5]; 10 μM): 99.15%
- RNA levels of E2 diminished (CHIKV E2 RNA; 10 μM): 75.8%
- RNA levels of nsP2 decreased (CHIKV nsP2 RNA; 10 μM): 82.7%
